Test results from patent US11571441B2, “Sideroflexins as mitochondrial serine transporters” (Whitehead Institute for Biomedical Research, priority 2018, dated 2023).
Entries after “also recorded” stand apart in the source; their conditions may differ. Like-named read-outs stand apart in the source and are kept apart here.

T1: SFXN1 (Homo sapiens, UniProt Q9H9B4)
T1 construct: made in house
T1 sequence (Q9H9B4 1-322): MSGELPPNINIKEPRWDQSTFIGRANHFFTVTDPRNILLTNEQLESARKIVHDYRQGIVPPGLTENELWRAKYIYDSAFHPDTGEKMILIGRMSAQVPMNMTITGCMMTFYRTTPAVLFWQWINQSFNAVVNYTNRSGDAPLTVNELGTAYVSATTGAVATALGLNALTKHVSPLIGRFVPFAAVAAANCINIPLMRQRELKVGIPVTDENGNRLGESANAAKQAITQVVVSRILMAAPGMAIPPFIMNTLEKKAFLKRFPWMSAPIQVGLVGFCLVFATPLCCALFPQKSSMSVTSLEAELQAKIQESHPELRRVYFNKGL


Tests used:
SFXN1 [1] = molecular target: T1, SFXN1; experiment: In vitro transport assay: [3H] serine/alanine uptake into SFXN1 proteoliposomes; assay type: biochemical; conditions: for competition of serine uptake by different metabolites (FIG. 3B) / competition of serine uptake by different metabolites (FIG. 3C): after 60 min, SFXN1 liposomes; for competition of serine uptake by different metabolites (FIG. 3C): metabolites at 500 μM; for Km: steady-state kinetic analysis, proteoliposomes
Experimental: (§1) In vitro transport assays were performed as described previously with the following specifications. Flag-SFXN1 was purified from 293T cells stably expressing the protein using FLAG-affinity purification and eluted off beads with FLAG peptide.
(§2) 1% Phosphatidylcholine was added to total E. coli lipids in chloroform, evaporated under nitrogen and desiccated overnight. Dried lipids were hydrated in inside buffer (20 mM MES pH 7, 50 mM NaCl, 20 mM KCl) by freeze-thawing in liquid nitrogen 20× times. Lipids were extruded 6× though a 0.4 μm filter and 15× through a 0.1 μm filter. 15 ug of purified SFXN1 protein were reconstituted into 1.2 mg liposomes using a detergent:lipid ratio of 5:1 with the addition of 1 mM DTT in inside buffer rotating at 4 degree for 1 hour. The proteoliposomes were incubated for 3 sequential rounds with Bio-beads to remove detergent. A liposome-only control was prepared by replacing the protein with inside buffer in the reconstitution reaction. Incorporation of protein into liposomes was assessed using glycerol gradient centrifugation. A buffer containing 20 mM Tris-HCL pH 7.4 and 100 mM NaCl was used as outside buffer in transport reactions.
In vitro transport assays were performed as described previously (43, 44) with the following specifications. FLAG-SFXN1 was purified from HEK-293T cells stably expressing the protein using FLAG-affinity purification and eluted off the beads with the FLAG peptide.
1% Phosphatidylcholine was added to total E. coli lipids in chloroform, evaporated under nitrogen and desiccated overnight. Dried lipids were hydrated in inside buffer (20 mM MES pH 7, 50 mM NaCl, 20 mM KCl) by freeze-thawing in liquid nitrogen 20× times. Lipids were extruded 6× through a 0.4 μm filter and 15× through a 0.1 μm filter. 15 μg of purified SFXN1 protein were reconstituted into 1.2 mg liposomes using a detergent:lipid ratio of 5:1 with the addition of 1 mM DTT in inside buffer rotating at 4° C. for 1 hour. The proteoliposomes were incubated for 3 sequential rounds with Bio-Beads to remove detergent. A liposome-only control was prepared by replacing the protein with inside buffer in the reconstitution reaction. Incorporation of protein into liposomes was assessed using a glycerol gradient centrifugation assay. [3H] […] Different lots of total E. coli lipid extracts were tested and ones that optimally preserved SFXN1 activity were used in experiments.

[2] = tested on: SFXN1-null cells (Jurkat and K562); experiment: Cell proliferation assay (Cell titer glo) in serine-deficient media, formate rescue; assay type: cell-based, human; conditions: 1 mM formate added, 4 days
Experimental: (§3) 10,000 cells per well were seeded into 96 well plates in triplicate. Cell titer glo reagent (Promega) was added to one plate immediately after seeding and luminescence was measured, while a second plate was read-out 4 days after seeding. Number of doublings in 4 days was determined by calculating the log2 fold-change in signal between day 0 and 4. For formate rescue experiments, 1 mM formate was added to cells at time of seeding (Jurkat cells) or cells were cultured in formate-containing media for 1 week prior to the experiment (K562 cells) unless indicated otherwise.
(§4) 10,000 cells per well were seeded into 96-well plates in triplicate. Cell titer glo reagent (Promega) was added to one plate immediately after seeding and luminescence was measured, while a second plate was read-out 4 days after seeding. Number of doublings in 4 days was determined by calculating the log2 fold-change in signal between day 0 and 4. For formate rescue experiments, 1 mM formate was added to media at the time of seeding (Jurkat cells) or cells were cultured in formate-containing media for 1 week prior to the experiment (K562 cells) unless indicated otherwise.

SFXN1-null Jurkat cells = experiment: LC-MS metabolite quantification (purine synthesis intermediates, serine, glycine) in SFXN1-null cells; assay type: cell-based, human; conditions: 1 mM formate, 24 hours in indicated media
Experimental: Quantification of metabolite abundance using LC/MS-based metabolomics was performed and analyzed as previously described. Briefly, Jurkat or K562 cells were seeded at densities of 0.6×10^6 per ml and 0.33×10^6 per ml, respectively. 24 h later, 2×10^6 Jurkat or 1×10^6 K562 cells were harvested, washed once in ice-cold 0.9% saline prepared with LC-MS grade H2O, and extracted with 80% methanol containing 500 nM isotope-labeled amino acids as internal standards (Cambridge Isotope Laboratories). The samples were vortexed for 10 min at 4° C. and spun down at 17,000×g. The supernatant was dried by vacuum centrifugation at 4° C. Samples were stored at −80° C. until analyzed. On the day of analysis, samples were resuspended in 50-100 μL of LC/MS grade water and the insoluble fraction was cleared by centrifugation at 15,000 rpm. The supernatant was then analyzed as previously described by LC/MS (21, 33). […]
Metabolite abundance using LC/MS-based metabolomics was measured and quantified as previously described (15). […] Samples were stored at −80° C. until analyzed. […] The supernatant was then analyzed as previously described by LC-MS (15, 38) Amino acids were normalized to their respective internal standards, purine synthesis intermediates were normalized to the glutamate internal standard. […]

[3] = tested on: SFXN1/3-null Jurkat cells; experiment: Cell proliferation assay in glycine-deficient media, formate rescue; assay type: cell-based, human; conditions: 1 mM formate, cells cultured with it 2 days before the experiment
Experimental: as §3, §4

SFXN1 [4] = experiment: Amino acid uptake into mitochondria isolated from wild-type or SFXN1-null Jurkat cells; assay type: biochemical, human; conditions: 0.75 μM [3H] serine or 3 μM [3H] glutamate, 30° C.
Experimental: Mitochondria from wild-type or SFXN1-null Jurkat cells were prepared according to (45). Briefly, cells (˜1 g starting material) were resuspended in low tonicity buffer (100 mM sucrose, 10 mM MOPS pH 7.2, 1 mM EGTA, 0.1% BSA) and disrupted with 20 strokes in a homogenizer containing a pure PTFE head (VWR International) and two strokes with a dounce tissue grinder with tight-fitting pestle (DWK Life Sciences Kimbl Kontes). After adjusting tonicity, lysates were spun twice at 950×g to remove unbroken cells and nuclei, and mitochondria were pelleted by centrifuging at 10,000×g for 10 min. […] Mitochondrial preparations were adjusted for protein content. […] 50 μl samples were collected immediately after start of the reaction and at 1, 2, 3 mins and added to mixed cellulose-ester filters (Fisher Scientific, 0.22 μm pore size) connected to a vacuum line (adapted from (47)). Filters were washed with 3 mL of ice cold TBS and the radioactivity remaining on the filters was measured using a scintillation counter. Blank reaction samples, in which mitochondria were replaced with incubation media, were used to subtract the background. The uptake rate was calculated from the first two minutes of the reaction.

[5] = substrate: C[C@H](N)C(=O)O; experiment: purified protein, by the assay type; conditions: other: steady-state kinetic analysis; proteoliposomes
[6] = substrate: N[C@@H](CO)C(=O)O; experiment: purified protein, by the assay type; assay type: biochemical, human; conditions: other: steady-state kinetic analysis; proteoliposomes; [3H] serine 1 μM with increasing unlabeled serine
Experimental: as §1
as §2, with “reactions. […]” for “reactions.”
1% Phosphatidylcholine was added to total E. coli lipids in chloroform, evaporated under nitrogen and desiccated overnight. […] Incorporation of protein into liposomes was assessed using a glycerol gradient centrifugation assay. […]

competition of serine uptake by different metabolites (FIG. 3B) (SFXN1 [1])	Molecule	competition of serine uptake by different metabolites (FIG. 3C) (SFXN1 [1])	other results
able to complete serine uptake	N[C@H](CO)C(=O)O [D-serine]	competed with the transport of the labelled serine	
able to complete serine uptake	N[C@@H](CO)C(=O)O [L-serine]	competed with the transport of the labelled serine	
able to complete serine uptake	C[C@H](N)C(=O)O [alanine]	competed with the transport of the labelled serine; also recorded: partially competed with serine	Km (SFXN1 [1]; read-out: Km of SFXN1-mediated alanine transport): ~371 µM
	O=C(O)CC(O)(CC(=O)O)C(=O)O [citrate]	Neither formate nor citrate competed with serine transport; also recorded: does not compete with serine	
	N[C@@H](CS)C(=O)O [cysteine]	competed with the transport of the labelled serine; also recorded: partially competed with serine	
	N[C@@H](CCC(=O)O)C(=O)O [glutamate]		radioactive amino acid uptake into mitochondria from SFXN1-null cells compared to wild-type (SFXN1 [4]): unaffected; also recorded: unchanged
	NCC(=O)O [glycine]	competed with the transport of the labelled serine; also recorded: partially competed with serine	
	N[C@@H](CO)C(=O)O [serine]		radioactive amino acid uptake into mitochondria from SFXN1-null cells compared to wild-type (SFXN1 [4]): reduced; Km (SFXN1 [1]; [3H] serine 1 μM with increasing unlabeled serine, read-out: Km of SFXN1-mediated serine transport): 170 µM
	SFXN1 (Homo sapiens) (protein, made in house) MSGELPPNINIKEPRWDQSTFIGRANHFFTVTDPRNILLTNEQLESARKIVHDYRQGIVPPGLTENELWRAKYIYDSAFHPDTGEKMILIGRMSAQVPMNMTITGCMMTFYRTTPAVLFWQWINQSFNAVVNYTNRSGDAPLTVNELGTAYVSATTGAVATALGLNALTKHVSPLIGRFVPFAAVAAANCINIPLMRQRELKVGIPVTDENGNRLGESANAAKQAITQVVVSRILMAAPGMAIPPFIMNTLEKKAFLKRFPWMSAPIQVGLVGFCLVFATPLCCALFPQKSSMSVTSLEAELQAKIQESHPELRRVYFNKGL		Km [5]: 371 µM; Km [6]: 170 µM; Vmax [6]: 8.2 pmol/min

Molecule	competition of serine uptake by different metabolites (FIG. 3B) (SFXN1 [1])	competition of serine uptake by different metabolites (FIG. 3C) (SFXN1 [1])	other results
O=CO [formate]	not able to complete serine uptake	Neither formate nor citrate competed with serine transport	rescue of proliferation of SFXN1-null cells in serine-deficient media [2]: completely restored growth of SFXN1-null cells; also recorded: completely reversed the slow proliferation; also recorded: rescues growth; accumulation of purine synthesis intermediates (GAR, SAICAR, AICAR) in SFXN1-null cells (SFXN1-null Jurkat cells): completely abolish their accumulation; also recorded: abolished the accumulation of the intermediates; also recorded: reverses the accumulation of purine synthesis intermediates; glycine levels and serine/glycine ratio of SFXN1-null cells (SFXN1-null Jurkat cells): without rescuing the cellular serine and glycine levels; also recorded: did not rescue the defects in glycine levels; also recorded: does not rescue glycine levels and serine/glycine ratio; rescue of proliferation of SFXN1/3-null cells in the absence of glycine [3]: unable to rescue the growth defect; also recorded: did not reverse their proliferation defect; also recorded: does not rescue proliferation
